Measured values as given in paper PMC9920413, “New Bicyclic Pyridine-Based Hybrids Linked to the 1,2,3-Triazole Unit: Synthesis via Click Reaction and Evaluation of Neurotropic Activity and Molecular Docking” (Molecules, 2023).
“And” between values parts separate entries of the source, which are not always exact repeats. Equal values may be shown once.

Legend:
mouse = experiment: Elevated plus maze (EPM) test; format: in vivo; details: 50 mg/kg i.p., 5 min; for Number of Entries into the Closed Arms: control 9.4 ± 1.6; for Time Spent in the Center: control 28.2 ± 3.12; for Time Spent in Closed Arms: control 269.2 ± 10.4
Description: Elevated plus maze—EPM test. Anti-anxiety and sedative effects were studied on mouse a model of the “elevated plus maze”. The labyrinth is a cruciform machine raised above the floor, with a pair of open and closed sleeves opposed to each other. Normal animals prefer to spend most of their time in the closed (dark) sleeves of the labyrinth. The anxiolytic effect of the compounds was estimated by the increase in the number of entries into open (light) sleeves and the time spent in them without increasing the total motor activity. This records the time spent in the closed sleeve and the number of attempts to enter the installation center. In the above model, the test compounds and the reference drug were injected intraperitoneally before the experiments. The control animals were administered as an emulsifier. Results were processed statistically (p < 0.05).

rats [1] = experiment: Open field test; format: in vivo; details: 50 mg/kg i.p.; for Cells Examination, amount (absolute data during 5 min): control 2.4 ± 0.67; for Vertical Displacement, amount (absolute data during 5 min): control 7.0 ± 2.14; for Horizontal Displacement, amount (absolute data during 5 min): control 21.6 ± 2.25
Experimental: Open field test. The research-motor behavior of rats was studied on a modified “open field” model. For this purpose, an installation was used, the bottom of which is divided into squares with holes (cells). Experiments were performed in the daytime with natural light. Within 5 min of the experiment, the indicators of sedative and activating behavior were determined, namely the number of horizontal movements, standing on the hind legs (vertical movements), and sniffing of the cells. The number of animals on this model was eight for each compound, control, and reference drug.

rats [2] = experiment: Electroshock retrograde amnesia, conditioned response of passive avoidance (CRPA); format: in vivo; details: 50 mg/kg, study for 5 min; for The Time Spent in the Light Chamber during the Training of the CRPA, First Day: control 280.0 ± 7.5; for The Time Spent in the Light Chamber When Playing CRPA + MESH after 24 h, Second Day: control 281.0 ± 6.1
Experimental: Test for learning and memory. The antiamnesic properties of the compounds were studied using an electroshock amnesia model modified by J. Bures, O. Buresova. In rats, a conditioned passive avoidance reaction (CRPA) to a dark-light setting was developed, while the training of the animals with CRPA was recorded. The residence times in the light and dark compartments were recorded for 5 min (300 s). Then, in the dark compartment, the animal received a single current shock (0.4 mA) through the electrode floor (training). To obtain amnesia, a maximum electroconvulsive seizure is induced in animals (conducting a maximum electric current of 50 Hz for 0.2 s through corneal electrodes). Conducting an electric shock immediately after training causes the erasure of the memory trace. The test for reproduction is carried out 24 h after training—after the development of CRPA. During this period, the control animals forget the training and prefer to be in the dark part of the chamber. An increase in the time spent by rats in the light compartment compared to the control on the second day indicates the presence of antiamnestic properties of the compounds.

[3] = tested on: pentylenetetrazole (PTZ)-induced convulsions; experiment: Antagonism to pentylenetetrazole (PTZ) convulsions; format: in vivo; details: for ED50 (by PTZ antagonism): mice, i.p. 45 min before PTZ 90 mg/kg s.c., confidence limits in brackets, p = 0.05; for TI: therapeutic index TI = LD50/ED50
Experimental: (§1) The study of the anticonvulsant activity of hybrids 7a–u was assessed by evaluating the antagonism to pentylenetetrazole (PTZ), thiosemicarbazide convulsive seizures, and maximal electroshock-induced seizures (MES). The PTZ-induced test is considered an experimental model for the clonic component of epilepsy seizures and the prognostic anxiolytic activity of the compounds. PTZ is a common convulsive agent used in animal models to investigate the mechanisms of seizures. The model of thiosemicarbazide (TSC) seizures (affecting the exchange of GABA) causes clonic seizures similar to pentylenetetrazole ones. The MES test is used as an animal model for the generalization of tonic seizures in epilepsy. The neurotoxicity and side effects of the compounds (movement coordination disorder, myorelaxation, and ataxia) were also studied on mice with the “rotating rod”[29] test.
The anticonvulsant effect of the newly synthesized compounds was investigated by tests comprising pentylenetetrazole, thiosemicarbazide convulsions, and maximal electroshock (MES). Outbred mice (weight 18–22 g) were used for the study. […] Each animal is placed into an individual plastic cage for observation lasting 1 h. Seizures and clonic convulsions were recorded. […] The control animals were administered as an emulsifier. Every dose of each test compound was studied in six animals.
(§2) Adverse neurotoxic (muscle relaxant) effects of compounds were studied at doses of 50 to 500 mg/kg when administered intraperitoneally, as well as reference drugs in effect at anticonvulsant doses. Myorelaxation was investigated with the test of a “rotating rod” in mice. To this end, mice were planted on a metal rod with a corrugated rubber coating, which rotated at a speed of 5 revolutions per minute. The number of animals that cnot stay on it for 2 min was determined. To determine the ED50, neurotoxic TD50, and LD50, the statistical method of penetration by Litchfield and Wilcoxon was used.

mice [4] = experiment: Rotating rod test (neurotoxicity, myorelaxation); format: in vivo; details: i.p., myorelaxation in 50% of animals
Experimental: as §1, §2

[5] = tested on: thiosemicarbazide (TSC)-induced convulsions; experiment: Thiosemicarbazide (TSC) seizures; format: in vivo, mice; details: mice; for Latency of Convulsions, Induced by TSC, M ± M: compound 100 mg/kg i.p. 45 min before TSC 18 mg/kg s.c.; for Latency of Convulsions, Induced by TSC, I (index of latent period of TSC seizures): compound 100 mg/kg i.p., relative to control = 1.0
Experimental: as §1
Thiosemicarbazide, an antimetabolite of GABA inhibitor (glutamic acid decarboxylase) in the brain, is administered subcutaneously to mice at a dose of 18 mg/kg as a 0.5% solution, which causes clonic convulsions in animals. Anti-thiosemicarbazide activity was evaluated based on the latency time of the onset of seizures. Compounds were administered intraperitoneally at doses of 100 mg/kg in suspension with carboxymethylcellulose and Tween-80 45 min before administration of thiosemicarbazide.

mice [6] = experiment: Forced swimming test; details: 50 mg/kg, 6 min; for Total Time of Immobilization: control 42.0 ± 7.24; for Total Time of Active Swimming: control 318.0 ± 8.36;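 on all read-outs here: mice made to swim in a water-filled glass vessel under natural light, with durations of active swimming and immobility recorded across the 6 min session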
Experimental: Forced swimming test. To assess “despair and depression”, the “compelling swimming” model was used. Experimental animals were forced to swim in a glass container (height 22 cm, diameter 14 cm), filled 1/3 with water. […] The latent period of immobilization, the total duration of active swimming and immobilization are fixed at 6 min (the experiments were conducted under natural light).

mice [7] = experiment: in vivo; details: dead animals after 24 h
Experimental: as §2

Row | Molecule | Time Spent in the Open Arms (mouse; control 2.6 ± 1.6, 50 mg/kg) | Number of Entries into the Closed Arms (mouse) | Time Spent in the Center (mouse) [s] | Time Spent in Closed Arms (mouse) [s] | Cells Examination, amount (absolute data during 5 min) (rats [1]) | Vertical Displacement, amount (absolute data during 5 min) (rats [1]) | Horizontal Displacement, amount (absolute data during 5 min) (rats [1]) | The Time Spent in the Light Chamber during the Training of the CRPA, First Day (rats [2]) [s] | The Time Spent in the Light Chamber When Playing CRPA + MESH after 24 h, Second Day (rats [2]) [s] | ED50 (by PTZ antagonism) [3] | TI [3] | TD50 (mice [4]) [mg/kg] | Latency of Convulsions, Induced by TSC, M ± M [5] [min] | Latency of Convulsions, Induced by TSC, I (index of latent period of TSC seizures) [5] | Total Time of Immobilization (mice [6]) [s] | Total Time of Active Swimming (mice [6]) [s] | LD50 (mice [7]) | Time Spent in the Open Arms (mouse; control 2.6 ± 1.6) [s] | melting point [°C]
1 | 6-{4-[(4-{[(4-Cyano-1-isopropyl-5,6,7,8-tetrahydroisoquinolin-3-yl)oxy]methyl}-1H-1,2,3-triazol-1-yl)acetyl]piperazin-1-yl}-1,3,3-trimethyl-3,4-dihydro-1H-pyrano [3,4-c]pyridine-5-carbonitrile [7g] | 6.6 s and 6.6 ± 2.3 s | 6.0 ± 1.67 | 53.4 ± 3.53 | 237.8 ± 12.5 | 10.0 ± 3.56 | 9.0 ± 2.34 | 49.0 ± 7.16 | 283.0 ± 5.2 | 297.0 ± 7.2 | 18 (10.6 ÷ 30.6) mg/kg | 37.8 | >500 | 28.4 ± 0.67 | 2.84 | 3.0 ± 0.6 | 357.0 ± 13.5 | 680 (571 ÷ 809) mg/kg | – | –
2 | 6-{4-[(4-{[(4-Cyano-1-isopropyl-5,6,7,8-tetrahydroisoquinolin-3-yl)oxy]methyl}-1H-1,2,3-triazol-1-yl)acetyl]piperazin-1-yl}-3,3-dimethyl-1-propyl-3,4-dihydro-1H-pyrano [3,4-c]pyridine-5-carbonitrile [7i] | – | 2.2 ± 0.61 | 16.0 ± 5.2 | 242.0 ± 16.46 | 3.4 ± 1.89 | 15.0 ± 4.28 | 50.2 ± 5.5 | 286.0 ± 6.3 | 299.0 ± 6.3 | – | 20.4 | >500 | 41.0 ± 1.75 | 4.1 | 62.0 ± 5.04 | 300.0 ± 19.35 | 695 (579 ÷ 834) mg/kg | 42.0 ± 8.43 | –
3 | 6-{4-[(4-{[(4-Cyano-1-methyl-5,6,7,8-tetrahydroisoquinolin-3-yl)oxy]methyl}-1H-1,2,3-triazol-1-yl)acetyl]piperazin-1-yl}-1,3,3-trimethyl-3,4-dihydro-1H-pyrano [3,4-c]pyridine-5-carbonitrile [7d] | – | 1.36 ± 0.8 | 15.0 ± 3.62 | 264 ± 8.12 | 6.2 ±0.38 | 14.4 ± 3.98 | 38.6 ± 5.18 | 284.0 ± 6.8 | 299.0 ± 7.2 | 16 (13.1 ÷ 19.5) mg/kg | – | >500 | 41.2 ± 1.61 | 4.12 | 77.4 ± 7.1 | 300.0 ± 29.2 | 800 (672 ÷ 952) mg/kg | 21.0 ± 3.2 | –
4 | 6-{4-[(4-{[(5-Cyano-3,3,8-trimethyl-3,4-dihydro-1H-pyrano [3,4-c]pyridin-6-yl)oxy]methyl}-1H-1,2,3-triazol-1-yl)acetyl]piperazin-1-yl}-1-ethyl-3,3-dimethyl-3,4-dihydro-1H-pyrano [3,4-c]pyridine-5-carbonitrile [7n] | – | 1.4 ± 1.2 | 82.0 ± 15.2 | 204.0 ± 14.2 | 3.0 ± 0.89 | 11.6 ± 2.5 | 52.2 ± 12.2 | 283.0 ± 7.1 | 297.0 ± 6.8 | 26 (18.6 ÷ 36.4) mg/kg | 31.5 | >500 | 41.2 ± 1.61 | 4.12 | 42.0 ± 12.04 | 324.0 ± 22.4 | 820 (689 ÷ 976) mg/kg | 12.0 ± 1.4 | –
5 | CCCc1nc(N2CCN(C(=O)Cn3cc(COc4nc(-c5ccco5)c5c(c4C#N)CCCC5)nn3)CC2)c(C#N)c2c1COC(C)(C)C2 [7l, 6-(4-{[4-({[4-Cyano-1-(2-furyl)-5,6,7,8-tetrahydroisoquinolin-3-yl]oxy}methyl)-1H-1,2,3-triazol-1-yl]acetyl}piperazin-1-yl)-3,3-dimethyl-8-propyl-3,4-dihydro-1H-pyrano [3,4-c]pyridine-5-carbonitrile] | – | – | – | – | – | – | – | – | – | – | – | – | – | – | – | – | – | – | 144 to 146
6 | CCCc1nc(OCc2cn(CC(=O)N3CCN(c4nc(C)c5c(c4C#N)CC(C)(C)OC5)CC3)nn2)c(C#N)c2c1COC(C)(C)C2 [7s, 6-{4-[(4-{[(5-Cyano-3,3-dimethyl-8-propyl-3,4-dihydro-1H-pyrano [3,4-c]pyridin-6-yl)oxy]methyl}-1H-1,2,3-triazol-1-yl)acetyl]piperazin-1-yl}-3,3,8-trimethyl-3,4-dihydro-1H-pyrano [3,4-c]pyridine-5-carbonitrile] | – | – | – | – | – | – | – | – | – | – | – | – | – | – | – | – | – | – | 192 to 194
